# Key:
# phospholamban = molecular target: T1, phospholamban (Cavia porcellus, UniProt A0A286XLC6); test: Calcium uptake assay (fluo-3) in SR vesicles from cardiac tissue; format: biochemical, guinea-pig; details: vesicles from ventricular myocardium, 0.1 µM free calcium, read-out: The stimulation (%) of Ca^2+ uptake A; for activation at 100 µM: 100 µM compound; for activation at 10 µM: 10 µM compound
# T1 construct: calcium uptake into the SR vesicles prepared from cardiac tissue; from tissue; host or cells: guinea-pig heart (ventricular myocardium), SR vesicle preparation
# T1 sequence (A0A286XLC6 1-52): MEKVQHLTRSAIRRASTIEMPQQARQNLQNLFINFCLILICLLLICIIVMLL
# From the text: (§1) The direct binding of a compound to the phospholamban protein can be ascertained by the circular dichroism (CD) spectroscopy. The methods for determining whether a compound relieves the inhibitory effect of phospholamban on SR Ca^2+-ATPase by direct binding to the phospholamban protein, i.e. is a phospholamban inhibitor, are illustrated in detail in the experimental section.
# (§2) The effect on phospholamban of the compounds used in the invention was verified by measuring its effects on calcium uptake into the SR vesicles prepared from cardiac tissue and into vesicles prepared from fast skeletal muscle (psoas m.). […] The methods are described below in detail.
# (§3) Guinea pigs (10-12) were decapited. Their hearts or the psoas muscles were excised, washed in ice-cold 0.9 % NaCl and cut into pieces in a buffer containing 20 mM Tris-maleate, 0.3 M sucrose, pH 7.0. Thereafter tissue pieces were homogenized with Polytron and further with Potter (10 strokes). The homogenate was centrifugated at 1000 g for 15 min at 4 °C. The supernatant was collected and the pellet was resuspended into 5 ml of the buffer (20 mM Tris-maleate, 0.3 M sucrose, pH 7.0) and recentrifugated at 1000 g for 10 min at 4 °C. The obtained supernatant was combined with the earlier collected supernatant and centrifugated once again at 10 000 g for 20 min at 4 °C. The final supernatant was filtered into a bottle equipped with a magnetic stirrer. KCl was added to the filtered supernatant to achieve the final concentration of 0.6 M (at 4 °C). The obtained solution was centrifugated at 100 000 g for 60 min at 4 °C. The pellet was suspended in 5 ml of the buffer containing 20 mM Tris-maleate, 0.3 M sucrose, pH 7.0 and centrifugated at 100 000 g for 60 min at 4 °C. The obtained pellet was suspended in 5 ml of buffer containing 20 mM Tris-maleate, 0.3 M sucrose, 0.1 M KCI, pH 7.0 and stored at -80 °C until use. The protein concentration was also measured in order to standardise the separately prepared vesicle preparations.
# (§4) In the calcium uptake assay, the fluorescent indicator, fluo-3 was used to detect the decrease of the extravesicular Ca^2+-concentration, when the SR Ca^2+ATPase was transferring Ca^2+ from the extravesicular space into the SR-vesicles.
# (§5) The SR-vesicles obtained above (50 µg protein/ml) were preincubated with or without the test compound at 37 °C for 5 min in the assay buffer containing 40 mM imidazole, 95 mM KCI, 5 mM NaN3, 5 mM MgCl2, 0.5 mM EGTA, 5 mM potassium oxalate, 2 µM ruthenium red, 5 µM fluo-3, pH 7.0. The free calcium was adjusted to 0.1 µM or to 0.04 µM by CaCl2. The reaction was initiated by adding ATP (5 mM). The final reaction volume was 1.5 ml. The fluorescence of reaction mixture was measured for 3 min by using the excitation and emission wavelengths of 510 nm and 530 nm, respectively.
# coronary arteries = test: Coronary flow in isolated paced heart (Langendorff, constant pressure); design: species or system guinea-pig; details: Cavia porcellus; for Emax at 3 µM / Emax at 10 µM / Emax at 30 µM: read-out: Maximum effect (% change from baseline) on the coronary flow; for EC50: isolated heart, constant pressure 50 mmHg, paced at 250 beats/min
# Method: Guinea-pigs of either sex weighing 300-400 g were used in the study. After the guinea-pig was sacrificed by a blow on the skull and decapitated the heart was rapidly excised. The heart was then rinsed in cold oxygenated perfusion buffer. A cannula was inserted into the aorta and secured with a ligature. Retrograde perfusion began as soon as the heart was placed in a thermostatically controlled moist chamber of the Langendorff apparatus. Modified Tyrode solution (37 °C), equilibrated in a thermostatically controlled bulb oxygenator with carbogen (95 % O2 and 5% CO2) was used as a perfusion buffer. The composition of the Tyrode solution was (in mM): NaCl 135; MgCl2 x 6H2O 1; KCl 5; CaCl2 x 2H2O 2; NaHCO3 15; Na2HPO4 x 2H2O 1; glucose 10; pH 7.3-7.4. The experiments were carried out under constant pressure condition (50 mmHg). After a short prestabilization (10 min) a latex balloon (size 4) was carefully placed into the left ventricle through the left pulmonary vein and the left atrium. The latex balloon was attached to a stainless-steel cannula coupled with a pressure transducer. The latex balloon, the cannula and the chamber of the pressure transducer were filled with ethylene glycol / water (1:1) mixture avoiding any air-bubble. The isovolumetric left ventricular pressure was recorded through the pressure transducer. The maximal positive and negative derivatives of the left ventricular pressure were calculated by using the digitized pressure signals. At the beginning of the experiment, the volume of the balloon was adjusted to obtain a diastolic pressure of approximately 5 mmHg. Coronary flow (ml/min) was continuously recorded by an electromagnetic flow meter with a flow probe inserted above the aortic cannula. The heart was paced at 250 beats/min with a coaxial electrode localized on the surface of the right atrium. Before starting the experiment, the heart was allowed to stabilise further for 30 - 50 min with vehicle (0.1% DMSO) to reach a stable coronary flow.
# After 15 min baseline recording various concentrations of the test compound of Example 1c were added to the perfusion buffer at 15 min intervals. The concentration range of 0.3 - 30 µM was tested. The vehicle concentration (0.1% DMSO) was kept constant throughout the experiment.
# SR Ca^2+-ATPase = test: Calcium uptake assay (fluo-3) in SR vesicles from fast skeletal muscle (psoas m.), which contain no phospholamban; format: biochemical, guinea-pig; details: vesicles from fast skeletal muscle, 0.04 µM free calcium
# From the text: as §1, §2, §3, §4, §5
SMILES,EC50 (coronary arteries) [µM],activation at 100 µM (phospholamban) [%],Emax at 10 µM (coronary arteries) [%],Emax at 30 µM (coronary arteries) [%],further results
"Cc1c(Cc2ccccc2)c(=O)n(Cc2ccccc2)c2cc(OCC(=O)NO)cc(OCC(=O)NO)c12 [Example 23, 5,7-Bis(hydroxyaminocarbonylmethoxy)-1,3-dibenzyl-4-methyl-2(1H)-quinolinone]",0.9,–,–,–,activation at 5 µM (phospholamban; 5 µM compound): 20%; Emax at 3 µM (coronary arteries): 55%
"Cc1c(Cc2ccccc2)c(=O)n(Cc2ccccc2)c2cc(OCC(N)=O)cc(OCC(N)=O)c12 [Example 21, 5,7-Bis(aminocarbonylmethoxy)-1,3-dibenzyl-4-methyl-2(1H)-quinolinone]",2,11,141,–,–
"O=c1oc2cc(OCc3nnn[nH]3)cc(OCc3nnn[nH]3)c2c2c1C(c1ccccc1)CCC2 (centres unmarked) [Example 2c, 7,8,9,10-Tetrahydro-1,3-bis[(1H -tetrazol-5-yl)methoxy]-7-phenyl-6H-dibenzo[b,d]pyran-6-one]",–,26,–,–,The stimulation (%) of Ca^2+ uptake B (SR Ca^2+-ATPase; 100 µM compound): -1%
"Cc1c(Cc2ccccc2)c(=O)n(Cc2ccccc2)c2cc(OCC(=O)O)cc(OCC(=O)O)c12 [Example 12, 5,7-Bis(carboxymethoxy)-1,3-dibenzyl-4-methyl-2(1H)-quinolinone]",5,32,60,–,–
"Cc1c(Cc2ccccc2)c(=O)oc2cc(OC(C)c3nnn[nH]3)cc(OC(C)c3nnn[nH]3)c12 (centres unmarked) [Example 11b, 3-Benzyl-5,7-bis[1-(1H-tetrazol-5-yl)ethoxy]4-methyl-2 H-1-benzopyran-2-one]",1,28,–,–,Emax at 3 µM (coronary arteries): 38%
"Cc1c(Cc2ccccc2)c(=O)n(Cc2ccccc2)c2cc(OCc3nnn[nH]3)cc(OCc3nnn[nH]3)c12 [Example 8g, 5,7-Bis[(1H-tetrazol-5-yl)methoxy]-1,3-dibenzyl-4-methyl-2(1H)-quinolinone]",1,–,100,–,activation at 10 µM (phospholamban): 18%; The stimulation (%) of Ca^2+ uptake B (SR Ca^2+-ATPase; 10 µM compound): 0%
Cc1c(Cc2ccccc2)c(=O)n(Cc2ccc(F)cc2)c2cc(OCc3nnn[nH]3)cc(OCc3nnn[nH]3)c12 [Example 13d],6,–,–,104,activation at 50 µM (phospholamban; 50 µM compound): 23%
"Cc1c(Cc2ccccc2)c(=O)oc2cc(OCc3noc(=O)[nH]3)cc(OCc3noc(=O)[nH]3)c12 [Example 3c, 3-Benzyl-5,7-bis[(2,5-dihydro-5-oxo-4H-1,2,4-oxadiazol-3-yl)-methoxy]-4-methyl-2H-1-benzopyran-2-one]",5,–,–,174,activation at 20 µM (phospholamban; 20 µM compound): 51%; The stimulation (%) of Ca^2+ uptake B (SR Ca^2+-ATPase; 20 µM compound): 0%

# Further lines, with some results ahead:
EC50 (coronary arteries) [µM],activation at 100 µM (phospholamban) [%],SMILES,Emax at 10 µM (coronary arteries) [%],Emax at 30 µM (coronary arteries) [%],further results
5,13,"Cc1cc(=O)n(Cc2ccccc2)c2cc(OCc3nnn[nH]3)cc(OCc3nnn[nH]3)c12 [Example 18e, 1-Benzyl-5,7-bis-[(1H-tetrazol-5-yl)methoxy]-4-methyl-2(1H)-quinolinone]",–,69,–
1.5,–,"Cc1c(Cc2ccc(Cl)cc2)c(=O)oc2cc(OCc3nnn[nH]3)cc(OCc3nnn[nH]3)c12 [Example 14c, 5,7-Bis[(1H-tetrazol-5-yl)methoxy]-3-(4-chlorobenzyl)-4-methyl-2H-1-benzopyran-2-one]",112,–,activation at 10 µM (phospholamban): 18%
> 10,–,"O=c1cc(-c2ccccc2)c2c(OCc3nnn[nH]3)cc(OCc3nnn[nH]3)cc2o1 [Example 5c, 5,7-Bis[(1H-tetrazol-5-yl)methoxy]-4-phenyl-2H-1-benzopyran-2-one]",–,52,–
–,5,"Cc1c(CCc2ccccc2)c(=O)oc2cc(OCc3nnn[nH]3)cc(OCc3nnn[nH]3)c12 [Example 7c, 5,7-Bis[(1H-tetrazol-5-yl)methoxy]-4-methyl-3-(2-phenylethyl)-2H-1benzopyran-2-one]",–,–,The stimulation (%) of Ca^2+ uptake B (SR Ca^2+-ATPase; 100 µM compound): -17%

# Source: patent EP1001774B1, “USE OF PHOSPHOLAMBAN INHIBITORS FOR INCREASING CORONARY FLOW” (ORION CORPORATION, priority 1997, dated 1999)
